# Reference: US6500466B2, “Chlorhexidine formulations, new chlorhexidine salts, solutions containing these and their use” (Degussa AG, priority 1998, dated 2002)
# Key:
# [1] = Light sensitivity and stability compared with the gluconate; assay type: physicochemical
# [2] = background statement; cited from earlier work
# [3] = Storage trials: production of p-chloroaniline in aqueous 20 wt. % solutions and in powdered mixtures (FIG. 1, FIG. 2); assay type: physicochemical; conditions: aqueous solution stored at constant 40° C.
# Description: The composition and appearance of gluconate solutions are subject to the requirements of the European Pharmacopoeia and the American Pharmacopoeia. One of the purity requirements is a concentration of p-chloroaniline limited to 500 ppm. In a reaction which is the reverse of forming the chlorhexidine base from hexamethylenebicyanoguanidine and p-chloroaniline, p-chloroaniline can be reversibly eliminated from these solutions on dissolving the base in D(+) glucono-6-lactone, the internal ester of D(+)-gluconic acid, wherein the solutions discolor and become increasingly yellow to brown. Decomposition of chlorhexidine solutions depends on the pH of the solution and in particular on the storage temperature. Tests show (FIG. 1), that the permissible p-chloroaniline values are exceeded after about one month when stored at a constant temperature of 40° C. Solutions of CHD-gluconate which are stable over the long-term have not hitherto been disclosed. The use of these solutions in regions with a tropical climate is therefore a problem which has not hitherto been resolved satisfactorily. Therefore, there is a need for chlorhexidine salt solutions which tend to decompose to only a small extent when used under extreme climatic conditions, in particular at high temperatures.
# The problem of long-term p-chloroaniline production cannot be solved by the invention of new anions. […]
compound,measurement,setting,value
chlorhexidine ascorbate,light sensitivity relative to the gluconate,[1],more light sensitive
same,stability relative to the gluconate,[1],more unstable than the gluconate
"[H]/N=C(\N/C(=N/[H])NCCCCCCNC(=N)NC(=N)Nc1ccc(Cl)cc1)Nc1ccc(Cl)cc1 [Chlorhexidine, 1,1′-hexamethylene-bis-[5,4-chlorophenyl]-biguanide]",solubility in water,[2],very low solubility in water
N=C(NCCCCCCNC(=N)NC(=N)Nc1ccc(Cl)cc1)NC(=N)Nc1ccc(Cl)cc1.O=C(O)[C@H](O)[C@@H](O)[C@H](O)[C@H](O)CO.O=C(O)[C@H](O)[C@@H](O)[C@H](O)[C@H](O)CO [Chlorhexidine digluconate],time after which permissible p-chloroaniline values (500 ppm) are exceeded,[3],about one
